Patent publication US10577368B2 (The United States of America, as represented by the …, priority 2013, dated 2020)

Assays:
[1] = molecular target: hA1AR (Homo sapiens (Human), UniProt P30542); experiment: Radioligand binding at hA1AR, CHO cell membranes, [3H]R-PIA; conditions: for inhibition at 10 µM: read-out: hA1AR % inhibition; for hA1AR % inhibition: inhibition of binding at 10 μM
[2] = system: chronic constriction injury model of neuropathic pain; experiment: CCI model of neuropathic pain, reversal of mechano-allodynia; assay type: in vivo, mice; conditions: for Max. effect Emax (% ± SEM) / Time of peak protection / Effect at 3 h (% ± SEM): 3 μmol/kg p.o., mice; for Max. effect Emax (% ± SEM) / Time of peak protection: ipsilateral hind paw; for Efficacy in reversing NP in vivo (of full reversal at peak effect): CCI model
[3] = molecular target: hA2AAR (Homo sapiens (Human), UniProt P29274); experiment: Radioligand binding at hA2AAR, HEK293 cell membranes, [3H]CGS21680; conditions: for inhibition at 10 µM: read-out: hA2AAR % inhibition; for hA2AAR % inhibition: inhibition of binding at 10 μM
[4] = molecular target: mA3AR (Mus musculus (Mouse), UniProt Q61618); experiment: Competition binding at mA3AR, HEK293 cell membranes
[5] = molecular target: hA3AR (Homo sapiens (Human), UniProt P0DMS8); experiment: Radioligand binding at hA3AR, CHO cell membranes, [125I]I-AB-MECA
[6] = molecular target: human DAT (Homo sapiens (Human), UniProt Q01959); experiment: Radioligand ([3H]WIN35428) binding at the dopamine transporter; conditions: 10 μM
Chain of human DAT (Q01959 whole entry): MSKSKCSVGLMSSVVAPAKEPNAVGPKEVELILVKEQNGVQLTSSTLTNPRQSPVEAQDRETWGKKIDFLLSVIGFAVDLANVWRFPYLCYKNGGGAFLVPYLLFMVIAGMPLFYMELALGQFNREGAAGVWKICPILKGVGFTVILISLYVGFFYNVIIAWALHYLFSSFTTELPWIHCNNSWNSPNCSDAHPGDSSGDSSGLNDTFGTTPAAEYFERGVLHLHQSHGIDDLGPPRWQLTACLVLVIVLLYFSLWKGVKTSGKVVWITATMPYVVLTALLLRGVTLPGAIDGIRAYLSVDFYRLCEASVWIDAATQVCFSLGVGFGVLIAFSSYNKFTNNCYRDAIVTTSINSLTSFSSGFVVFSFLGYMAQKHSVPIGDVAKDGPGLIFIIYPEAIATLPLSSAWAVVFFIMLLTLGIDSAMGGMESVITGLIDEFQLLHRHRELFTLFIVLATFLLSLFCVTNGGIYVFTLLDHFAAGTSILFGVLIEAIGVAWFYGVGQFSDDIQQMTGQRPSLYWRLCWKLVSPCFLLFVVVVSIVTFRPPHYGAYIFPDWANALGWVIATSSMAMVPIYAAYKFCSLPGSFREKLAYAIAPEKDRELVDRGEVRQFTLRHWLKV

Chain of hA1AR (P30542 whole entry): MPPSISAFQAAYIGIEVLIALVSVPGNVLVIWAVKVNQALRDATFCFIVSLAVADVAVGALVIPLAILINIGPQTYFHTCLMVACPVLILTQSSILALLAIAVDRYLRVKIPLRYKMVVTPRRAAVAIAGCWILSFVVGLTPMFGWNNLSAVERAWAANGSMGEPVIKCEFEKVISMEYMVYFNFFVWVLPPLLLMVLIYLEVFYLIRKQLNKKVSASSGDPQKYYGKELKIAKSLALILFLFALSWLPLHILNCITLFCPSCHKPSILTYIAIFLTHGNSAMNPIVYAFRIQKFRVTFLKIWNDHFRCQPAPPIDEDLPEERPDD
Chain of hA2AAR (P29274 whole entry): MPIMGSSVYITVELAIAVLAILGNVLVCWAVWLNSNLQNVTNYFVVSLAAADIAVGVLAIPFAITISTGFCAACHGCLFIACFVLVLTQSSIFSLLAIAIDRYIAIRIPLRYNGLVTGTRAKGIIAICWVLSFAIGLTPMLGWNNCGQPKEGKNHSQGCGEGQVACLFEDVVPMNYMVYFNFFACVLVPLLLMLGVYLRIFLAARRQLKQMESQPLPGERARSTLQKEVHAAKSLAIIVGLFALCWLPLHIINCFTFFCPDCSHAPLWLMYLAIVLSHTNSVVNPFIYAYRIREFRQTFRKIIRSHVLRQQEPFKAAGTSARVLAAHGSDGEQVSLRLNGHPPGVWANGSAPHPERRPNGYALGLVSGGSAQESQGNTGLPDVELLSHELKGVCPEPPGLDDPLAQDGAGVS
Chain of hA3AR (P0DMS8 whole entry): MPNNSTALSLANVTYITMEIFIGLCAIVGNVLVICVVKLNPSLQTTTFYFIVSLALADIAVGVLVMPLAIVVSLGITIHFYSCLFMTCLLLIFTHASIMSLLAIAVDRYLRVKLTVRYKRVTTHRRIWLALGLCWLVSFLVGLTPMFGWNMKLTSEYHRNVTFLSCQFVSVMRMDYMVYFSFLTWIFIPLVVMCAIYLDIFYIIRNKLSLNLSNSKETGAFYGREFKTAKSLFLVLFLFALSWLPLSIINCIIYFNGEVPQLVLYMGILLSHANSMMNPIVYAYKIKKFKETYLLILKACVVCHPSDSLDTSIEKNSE
Chain of mA3AR (Q61618 whole entry): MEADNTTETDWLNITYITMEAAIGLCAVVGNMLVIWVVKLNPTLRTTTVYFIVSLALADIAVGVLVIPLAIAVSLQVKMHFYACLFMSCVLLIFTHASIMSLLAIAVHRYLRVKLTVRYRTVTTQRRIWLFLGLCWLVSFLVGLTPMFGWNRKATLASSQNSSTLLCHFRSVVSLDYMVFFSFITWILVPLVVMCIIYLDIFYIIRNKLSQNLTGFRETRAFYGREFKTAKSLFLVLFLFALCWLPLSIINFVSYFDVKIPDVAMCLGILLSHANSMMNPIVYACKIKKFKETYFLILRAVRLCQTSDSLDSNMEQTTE

| inhibition at 10 µM [1] [%] | inhibition at 10 µM [3] [%] | Ki [4] [nM] | Ki [5] [nM] | hA2AAR % inhibition [3] [%] | Compound | Max. effect Emax (% ± SEM) [2] [%] | Time of peak protection [2] [h] | Efficacy in reversing NP in vivo (of full reversal at peak effect) [2] | hA1AR % inhibition [1] [%] | Effect at 3 h (% ± SEM) [2] [%] | Increase of the level of radioligand ([3H]WIN35428) binding at the human DAT [6] [%] | Ki [3] [nM] |
| --- | --- | --- | --- | --- | --- | --- | --- | --- | --- | --- | --- | --- |
| 25 ± 10 | 27 ± 5 | 65 ± 6 |  |  | CNC(=O)[C@@]12C[C@@H]1[C@@H](n1cnc3c(NC)nc(C#Cc4ncccn4)nc31)[C@H](O)[C@@H]2O [Compound 6, (1S,2R,3S,4R,5S)-2,3-Dihydroxy-N-methyl-4-(6-(methylamino)-2-(pyrimidin-2-ylethynyl)-9H-purin-9-yl)bicyclo[3.1.0]hexane-1-carboxamide] | 92.3 ± 7.7 | 0.5 to 1 | less than full efficacy |  |  |  |  |
| 30 | 19 ± 2 | 50 ± 2 |  |  | CNC(=O)[C@@]12C[C@@H]1[C@@H](n1cnc3c(NC)nc(C#Cc4cc[nH]n4)nc31)[C@H](O)[C@@H]2O [Compound 9, (1S,2R,3S,4R,5S)-4-(2-((1H-Pyrazol-3-yl)ethynyl)-6-(methylamino)-9H-purin-9-yl)-2,3-dihydroxy-N-methylbicyclo[3.1.0]hexane-1-carboxamide] |  | 0.5 to 1 |  |  |  |  |  |
| 10 | 24 ± 8 |  | 0.63 ± 0.07 |  | CNC(=O)[C@@]12C[C@@H]1[C@@H](n1cnc3c(NC)nc(C#Cc4ccc(OC)cc4)nc31)[C@H](O)[C@@H]2O [Compound 11, (1S,2R,3S,4R,5S)-2,3-Dihydroxy-4-(2-((4-methoxyphenyl)ethynyl)-6-(methylamino)-9H-purin-9-yl)-N-methylbicyclo[3.1.0]hexane-1-carboxamide] |  | 0.5 to 1 |  |  |  |  |  |
| 8 ± 4 | 26 ± 5 |  | 0.91 ± 0.07 |  | CNC(=O)[C@@]12C[C@@H]1[C@@H](n1cnc3c(NC)nc(C#Cc4cccc(OC)c4)nc31)[C@H](O)[C@@H]2O [Compound 12, (1S,2R,3S,4R,5S)-2,3-Dihydroxy-4-(2-((3-methoxyphenyl)ethynyl)-6-(methylamino)-9H-purin-9-yl)-N-methylbicyclo[3.1.0]hexane-1-carboxamide] |  | 0.5 to 2 |  |  |  |  |  |
| 12 | 20 ± 7 |  | 0.77 ± 0.17 |  | CNC(=O)[C@@]12C[C@@H]1[C@@H](n1cnc3c(NC)nc(C#Cc4ccccc4OC)nc31)[C@H](O)[C@@H]2O [Compound 13, (1S,2R,3S,4R,5S)-2,3-Dihydroxy-4-(2-((2-methoxyphenyl)ethynyl)-6-(methylamino)-9H-purin-9-yl)-N-methylbicyclo[3.1.0]hexane-1-carboxamide] | 64.3 ± 10.7 | 1 | ~70% |  |  |  |  |
| 11 | 3 ± 2 |  | 0.52 ± 0.04 |  | CNC(=O)[C@@]12C[C@@H]1[C@@H](n1cnc3c(NC)nc(C#Cc4ccsc4)nc31)[C@H](O)[C@@H]2O [Compound 16, (1 S,2R,3S,4R,5S)-2,3-Dihydroxy-N-methyl-4-(6-(methylamino)-2-(thiophen-3-ylethynyl)-9H-purin-9-yl)bicyclo[3.1.0]hexane-1-carboxamide] |  | 0.5 to 1 | diminished |  |  |  |  |
| 18 | 4 ± 4 |  | 1.5 ± 0.28 |  | CCc1ccc(C#Cc2nc(NC)c3ncn([C@H]4[C@H](O)[C@H](O)[C@]5(C(=O)NC)C[C@H]45)c3n2)o1 [Compound 34, (1S,2R,3S,4R,5S)-4-(2-((5-Ethylfuran-2-yl)ethynyl)-6-(methylamino)-9H-purin-9-yl)-2,3-dihydroxy-N-methylbicyclo[3.1.0]hexane-1-carboxamide] |  | 1 |  |  |  |  |  |
|  |  |  | 3.48 ± 0.97 | 27 ± 3 | CNC(=O)[C@]12CC1[C@@H](n1cnc3c(NC)nc(-n4cc(-c5ncccn5)nn4)nc31)[C@H](O)C2O (stereo partly drawn) [Compound 104] | 89 ± 11 | 1 |  | 14 ± 7 | 39 ± 10 |  |  |
|  |  |  | 2.21 ± 0.34 | 8 ± 3 | CNC(=O)[C@]12CC1[C@@H](n1cnc3c(NC)nc(-n4cc(-c5cnccn5)nn4)nc31)[C@H](O)C2O (stereo partly drawn) [Compound 105] | 78 ± 0 | 1 |  | 25 ± 10 | 22 ± 7 |  |  |
|  |  |  | 1.25 ± 0.27 | 40 ± 6 | CNC(=O)[C@]12CC1[C@@H](n1cnc3c(NC)nc(-n4cc(-c5cc6ccccc6o5)nn4)nc31)[C@H](O)C2O (stereo partly drawn) [Compound 108] | 55 ± 6 | 1 |  | 12 ± 7 | 8 ± 8 |  |  |
|  |  |  | 0.58 ± 0.17 | 7 ± 6 | CNC(=O)[C@]12CC1[C@@H](n1cnc3c(NC)nc(-n4cc(-c5ccc(Br)s5)nn4)nc31)[C@H](O)C2O (stereo partly drawn) [Compound 111] | 69 ± 9 | 1 |  |  | 14 ± 2 |  |  |
|  |  |  |  |  | CCNc1nc(C#Cc2ccc(Cl)s2)nc2c1ncn2[C@H]1C(O)[C@@H](O)[C@]2(C(=O)NC)C[C@H]12 (stereo partly drawn) [Compound 126] |  |  |  |  |  | 329 |  |
| 15 | 2 ± 2 |  | 2.07 ± 0.16 |  | CNC(=O)[C@@]12C[C@@H]1[C@@H](n1cnc3c(NC)nc(C#Cc4ccncc4)nc31)[C@H](O)[C@@H]2O [Compound 300, (1S,2R,3S,4R,5S)-2,3-Dihydroxy-N-methyl-4-(6-(methylamino)-2-(pyridin-4-ylethynyl)-9H-purin-9-yl)bicyclo[3.1.0] hexane-1-carboxamide] |  | 1 | low efficacy |  |  |  |  |

| Compound | inhibition at 10 µM [1] [%] | inhibition at 10 µM [3] [%] | Ki [4] [nM] | Ki [5] [nM] | hA2AAR % inhibition [3] [%] | Max. effect Emax (% ± SEM) [2] [%] | Time of peak protection [2] [h] | Efficacy in reversing NP in vivo (of full reversal at peak effect) [2] | hA1AR % inhibition [1] [%] | Effect at 3 h (% ± SEM) [2] [%] | Increase of the level of radioligand ([3H]WIN35428) binding at the human DAT [6] [%] | Ki [3] [nM] |
| --- | --- | --- | --- | --- | --- | --- | --- | --- | --- | --- | --- | --- |
| CNC(=O)[C@]12CC1[C@@H](n1cnc3c(NC)nc(-n4cc(-c5ccccn5)nn4)nc31)[C@H](O)C2O (stereo partly drawn) [Compound 103] |  |  |  | 1.84 ± 0.38 | 26 ± 2 | 55 ± 6 | 1 |  | 29 ± 7 | 22 ± 7 |  |  |
| CNC(=O)[C@]12CC1[C@@H](n1cnc3c(NC)nc(-n4cc(-c5cnn(C)c5)nn4)nc31)[C@H](O)C2O (stereo partly drawn) [Compound 106] |  |  |  | 2.16 ± 0.32 | 1 ± 1 | 85 ± 5 | 1 |  | 2 ± 2 | 22 ± 7 |  |  |
| CNC(=O)[C@]12CC1[C@@H](n1cnc3c(NCCc4ccccc4)nc(N=[N+]=[N-])nc31)[C@H](O)C2O (stereo partly drawn) [Compound 117] |  |  |  | 0.85 ± 0.1 | 71 |  |  |  | 93 |  |  |  |
| CNC(=O)[C@]12CC1[C@@H](n1cnc3c(NCCc4ccccc4)nc(I)nc31)[C@H](O)C2O (stereo partly drawn) [Compound 119] |  |  |  | 0.91 ± 0.14 |  |  |  |  | 68 |  |  |  |
| CNC(=O)[C@]12CC1[C@@H](n1cnc3c(NCCc4ccccc4)nc(-n4cc(-c5ccc(Cl)s5)nn4)nc31)[C@H](O)C2O (stereo partly drawn) [Compound 121] |  |  |  | 6.66 ± 2.07 |  | 90 | 0.5 to 3 |  | 58 | 80 |  |  |
| CNC(=O)[C@]12CC1[C@@H](n1cnc3cnc(C#Cc4ccccc4)nc31)[C@H](O)C2O (stereo partly drawn) [Compound 402] |  |  |  | 1.51 ± 0.41 |  |  |  |  | 28 ± 4 |  |  | 1200 |
